# Experimental data reported in patent publication US20030170221A1, “STREPTOMYCES MEGASPORUS SD5, PROCESS FOR THE ISOLATION THEREOF, NOVEL FIBRINOLYTIC ENZYME PREPARED THEREFROM, PROCESS FOR THE PRODUCTION OF SAID ENZYME AND METHOD OF TREATMENT OF THROMBOLYTIC DISORDERS USING SAID ENZYME” (MAHARASHTRA ASSOC. FOR THE CULTIVATION OF SCIENCE, priority 2001, published 2003).
# Like-named read-outs stand apart in the source and are kept apart here. Square brackets hold non-standard residues; d marks the D form. Peptide text beside a SMILES is read from it. * marks the point of attachment. Sta = CC(C)C[C@H](N)[C@@H](O)CC(=O)O; Isovaleryl = CC(C)CC(=O)*
# Tests used:
# [1] = system: fibrinolytic enzyme produced by S. megasporus SD5; assay: Effect of protease inhibitors on fibrinolytic activity of the crude enzyme (FIG. 5); type: biochemical, Streptomyces megasporus SD5
# Text: (§1) 1.Control, 2—Antipain—3, Bestatin, —4, Chymostatin, —5. E-64, 6—Leupeptin, 7—Pepstatin, 8 Phosphoramidon, 9—pefabloc, 10—EDTA, 11—EDTA+Ca^++, 12—Aprotinin, 13—Trypsin inhibitor, 14—β-mercaptoethanol, 15—TPCK, 16—1, 10 pheuanthroline, 17—PMSF.
# To determine the class to which the enzyme belonged the effect of different protease inhibitors were studied in detail.
# [2] = system: fibrinolytic enzyme (actinokinase) produced by Streptomyces megasporus SD5, ~35 kDa, wild type; assay: Effects of various inhibitors on fibrinolytic activity of the enzyme (FIG. 5); type: biochemical; conditions: result in words
# Experimental: as §1
# The fibrinolytic (thrombolytic) activity was assayed on solid and liquid media (Harverkate & Trass 1974, Lottenberg et al. 1981). The reaction mixture (1 ml) comprised of chromogenic substrates, such as benzoyl-β-alanyl-glycyl-arginine-ρ nitroanilide (20 μmol 1^−1) in 10 mM sodium phosphate buffer, pH 8.0 and incubated at 55° C. for 30 min after addition of 1 ml, enzyme solution containing 0.5 μg protein ml^−1, cooled to room temperature and the liberation of ρ-nitroanilide was measured by increased absorbance recorded at 405 nm using a UV-VIS Spectrophotometer (DU 8B, Beckman, Sweden). One unit of the enzyme was defined as the amount of enzyme that catalysed the formation of 1 ng of ρ-nitroanilide min^−1. The caseinolytic activity was determined by Dunn (1989) in terms of μmol tyrosine min^−1. Protein was determined using Folin Ciocalteau phenol reagent. All the results of growth and assays are the means of three separate experiments.
# To determine the class to which the enzyme belonged the effect of different protease inhibitors were studied in detail. As the fibrinolytic enzyme could be used as a therapeutic agent for different types of thrombosis so in vitro clot lysis was studied with both natural and synthetic clots.
# actinokinase = assay: Effects of inhibitors and metal ions on activity of the purified enzyme; type: biochemical, Streptomyces megasporus SD5
# Experimental: (§2) Different protease inhibitors were separately dissolved in distilled water/methanol/dimethyl sulphoxide as per manufacturers protocol, so that final concentration of each inhibitor was 1 mM. The enzyme (50 μl) was mixed with same amount (50 μl) of inhibitor and incubate at ambient temperature for 30 min. The residual activity was measured at 55° C. as above using universal protease substrate and compared with that of the control without any inhibitor and the inhibition was determined as percentage taking control as 100% positive.
# [3] = system: actinokinase, fibrinolytic enzyme from Streptomyces megasporus SD5, 35 kDa serine protease, wild type; conditions: 1 mM inhibitor, ambient temperature 30 min; residual activity at 55° C., universal protease substrate
# Experimental: as §2
# [4] = system: actinokinase, fibrinolytic enzyme from Streptomyces megasporus SD5, 35 kDa serine protease, wild type; assay: Michaelis constant with Chromozyme U as substrate, Lineweaver-Burk plot; type: biochemical; conditions: in absence of plasminogen
# Experimental: The thrombolytic activity was measured on standard fibrin plate using the method of Haverkate-Trass (1974) as mentioned previously and compared with available thrombolytic enzyme, urokinase, Each sample (20 μl) was put on the fibrin clot layer and incubated at both 55° C. and 37° C. for 8 h. The zone of clear areas for standard urokinase and the enzyme of the invention was measured and thrombolytic activities of both enzymes were expressed in terms of Plough units. Amidolytic activity was determined using chromogenic substrates and one unit of activity is defined as the amount of enzyme, which released […] of pNA min^−1. Amydolytic activity in liquid medium was determined using the method by Lottenberg et al (1981). Caseinolytic activity was assayed by the procedure described by Pokorny et al (1979). Protein concentration was estimated by a modification of the Lowry's method (1951).
# Substrate specificity of the enzyme was assessed at 405 nm by using various synthetic peptide substrates, (20 μM) tagged with ρ-nitranilide acetate and resorufin, in the reaction mixture. The Michaelis constant (Km) was determined using Chromozyme U as substrate using line weaver Burk plot method (Jayaraman 1985).
# [5] = system: Streptomyces megasporus SD5; assay: Antibiotic sensitivity of the strain; type: cell-based; conditions: concentration of 50 μg ml^−1
# [6] = reportedly; cited from earlier work
# fibrin = conditions: prior art; cited from earlier work
# [7] = Pharmacological properties of thrombolytic agents in acute myocardial infarctions; conditions: for Efficacy (<4 h): acute myocardial infarctions
# [8] = cited from earlier work
# [9] = in vivo
# [10] = Table III, available enzymes; cited from earlier work
# [11] = inhibitor 1 mM, purified enzyme, universal protease substrate, 55° C.
Compound,"effect of inhibitor on fibrinolytic activity of the enzyme ([1]; crude enzyme, FIG. 5)",effect of inhibitor on enzymatic activity (actinokinase; [11]),further results
"c1cnc2c(c1)ccc1cccnc12 [1,10 phenanthroline]",No change,No change in activity,effect of inhibitor on fibrinolytic activity [2]: No change in the activity
CC(C)C[C@H](NC(=O)[C@@H](O)[C@H](N)Cc1ccccc1)C(=O)O [Bestatin],strongly repressed,highly repressed,–
CC(C)C[C@H](NC(=O)[C@@H](NC(=O)N[C@@H](Cc1ccccc1)C(=O)O)[C@@H]1CCN=C(N)N1)C(=O)N[C@H](C=O)Cc1ccccc1 [Chymostatin],strongly repressed,highly repressed,–
CC(C)C[C@H](NC(=O)[C@H]1O[C@@H]1C(=O)O)C(=O)NCCCCN=C(N)N [E-64],–,Insignificant inhibition,–
O=C(O)CN(CCN(CC(=O)O)CC(=O)O)CC(=O)O [EDTA],–,–,effect of inhibitor on fibrinolytic activity of the enzyme [1]: inhibitory effect; effect of inhibitor on fibrinolytic activity [2]: inhibitory effect; effect of inhibitor on enzymatic activity (actinokinase): inhibitory effect; effect of inhibitor on enzymatic activity [3]: inhibitory effect
CC(=O)N[C@@H](CC(C)C)C(=O)N[C@@H](CC(C)C)C(=O)N[C@H](C=O)CCCNC(=N)N [Leupeptin],moderately sensitive,moderately sensitive,–
O=S(=O)(F)Cc1ccccc1 [PMSF],strongly repressed,highly repressed,–
"Cl.NCCc1ccc(S(=O)(=O)F)cc1 [Pefabloc, pefabloc]",strongly repressed,highly repressed,–
CC(C)CC(=O)N[C@H](C(=O)N[C@H](C(=O)N[C@@H](CC(C)C)[C@@H](O)CC(=O)N[C@@H](C)C(=O)N[C@@H](CC(C)C)[C@@H](O)CC(=O)O)C(C)C)C(C)C [Pepstatin] (Isovaleryl-VV[Sta]A[Sta]-OH),–,Insignificant inhibition,–
CC(C)C[C@H](NP(=O)(O)O[C@@H]1O[C@@H](C)[C@H](O)[C@@H](O)[C@H]1O)C(=O)N[C@@H](Cc1c[nH]c2ccccc12)C(=O)O [Phosphoramidon],No change,No change in activity,–
Cc1ccc(S(=O)(=O)N[C@@H](Cc2ccccc2)C(=O)CCl)cc1 [TPCK],moderately sensitive,moderately sensitive,–
"N=C(N)NCCC[C@H](NC(=O)CNC(=O)CCNC(=O)c1ccccc1)C(=O)Nc1ccc([N+](=O)[O-])cc1 [chromozyme U, Benzoyl-β-ala-gly-arg-4-ρNA] (HELM PEPTIDE1{[O=C(c1ccccc1)[*:2]].[bAla].G.R.[O=[N+]([O-])c1ccc(N[*:1])cc1]}$$$$V2.0)",–,–,Km [4]: 2.2 µM
CCC[C@@H]1C[C@@H](C(=O)N[C@@H]([C@H]2O[C@H](SC)[C@H](O)[C@@H](O)[C@H]2O)[C@@H](C)O)N(C)C1 [lincomycin],–,–,inhibition of the microorganism [5]: inhibited
CC(C)C[C@H](NP(=O)(O)O[C@@H]1O[C@@H](C)[C@H](O)[C@@H](O)[C@H]1O)C(=O)N[C@@H](Cc1c[nH]c2ccccc12)C(=O)O [phosphoramidin],–,–,effect of inhibitor on fibrinolytic activity [2]: No change in the activity
C=C(NC(=O)C(=C)NC(=O)c1csc(C2=N[C@@H]3c4csc(n4)[C@H]4NC(=O)c5csc(n5)[C@H]([C@](C)(O)[C@@H](C)O)NC(=O)[C@H]5CSC(=N5)/C(=C/C)NC(=O)[C@H]([C@@H](C)O)NC(=O)c5csc(n5)[C@]3(CC2)NC(=O)[C@H](C)NC(=O)C(=C)NC(=O)[C@H](C)NC(=O)[C@H]([C@@H](C)CC)N[C@@H]2C=Cc3c([C@H](C)O)cc(nc3[C@H]2O)C(=O)O[C@@H]4C)n1)C(N)=O [thiostrepton],–,–,inhibition of the microorganism [5]: inhibited
OCCS [β-mercaptoethanol],–,Insignificant inhibition,–
Aprotinin,strongly repressed,highly repressed,–
Streptokinase: prior art plasminogen activator,–,–,failure rate as thrombolytic agent [6]: ≤ 25%; affinity for fibrin (fibrin): do not show any affinity; Efficacy (<4 h) [7]: 65; Adverse effects ([7]; in vivo): Haemorragic; Half life ([7]; in vivo): 23 min
T-PA: tissue plasmiogen activators,–,–,"Efficacy (<4 h) ([8]; acute myocardial infarctions, data from the literature): 70; Half life ([8]; in vivo): 5 min"
Urokinase,–,–,Half life [9]: 16 min; Optimum Temperature [10]: 37 °C; Optimum pH [10]: 7.5; affinity for fibrin (fibrin): do not show any affinity; Efficacy (<4 h) [7]: 65
